One series relates to DENV-1. In words: Inhibition of DENV replication in Huh-7 cells, viral RNA by quantitative real time PCR. Format: cell-based, dengue virus. To be noted: 48 hrs, mean ± SD of 3 experiments. As to the method:
(§1) ^a Each experiment was done in duplicate. The mean and standard deviation shown represent 3 independent (different date) experiments for each virus tested. Huh-7 cells were plated in 96-well plate at 10,000 cells/well in DMEM containing 10 % FBS in 100 μl volume one day prior to set up of the assay. The following day the medium was aspirated off and diluted virus at a multiplicity of infection of 0.5 or media was added to the assay and control wells, respectively. The virus was allowed to attach to the cells for two hours at 37°C in a humidified 5% C02 atmosphere while the dilutions of the test molecule were prepared. Test molecules (or medium as a control) were added after aspiration of the virus-containing media 2 hours post-infection in 3-fold dilutions at a final DMSO concentration of 1%. After 48 hrs, cells were washed and cellular RNA were isolated. In this study, we used a quantitative real time PCR method to quantitate dengue viral RNA in Huh-7 in the presence of inhibitors. Viral RNA and endogenous 18S rRNA control (Applied Bio System) was quantified by a real time PCR assay using the following primers. Dengue Reverse (Common to all the serotypes): 5’-[…]-3’, Dengue forward serotype 1: 5’-[…]-3’, Dengue forward serotype 2 or 3: 5’-[…]-3’, Dengue forward serotype 4: 5’-[…] -3’ and Dengue probe (Common to all the serotypes): 5'-/56-FAM/[…]/3BHQ_1/-3'. Taqman was performed in duplicate. IC50 was obtained using the following calculations. First ΔCt was calculated by subtracting 18S rRNA CT value from dengue RNA CT value. ΔCts from duplicate taqman assay were averaged. Then ΔΔCt was obtained by subtracting the average ΔCt of non-treated sample from the treated sample average ΔCt. Relative quantification was calculated using the following formula. Relative quantification = 2^-averageΔΔCT. The 50% inhibitory concentrations (EC50) were calculated using the sigmoidal dose-response model in Microsoft XLfit.
For orientation: Real-time PCR tracks product formation cycle by cycle.

For a further series, the system named is DENV-3. Described as above. To be noted: 48 hrs, mean ± SD of 3 experiments. Format: cell-based, dengue virus. On the procedure: as §1
Another series deals with DENV-4. The description is as above. Format: cell-based, dengue virus. To be noted: 48 hrs, mean ± SD of 3 experiments. As to the method: as §1
Another series has as its system DENV-2. The series is described as above. Format: cell-based, dengue virus. Particulars: 48 hrs, mean ± SD of 3 experiments. As to the method:
as §1

Series [1] deals with DENV reference strains and clinical isolates. In words: Inhibition of DENV replication in Huh-7 cells, summary over all strains. Format: cell-based, dengue virus.
Procedure: The mean and standard deviation shown represent 3 independent (different date) experiments for each virus tested. Huh-7 cells were plated in 96-well plate at 10,000 cells/well in DMEM containing 10 % FBS in 100 μl volume one day prior to set up of the assay. The following day the medium was aspirated off and diluted virus at a multiplicity of infection of 0.5 or media was added to the assay and control wells, respectively. The virus was allowed to attach to the cells for two hours at 37°C in a humidified 5% C02 atmosphere while the dilutions of the test molecule were prepared. Test molecules (or medium as a control) were added after aspiration of the virus-containing media 2 hours post-infection in 3-fold dilutions at a final DMSO concentration of 1%. After 48 hrs, cells were washed and cellular RNA were isolated. In this study, we used a quantitative real time PCR method to quantitate dengue viral RNA in Huh-7 in the presence of inhibitors. Viral RNA and endogenous 18S rRNA control (Applied Bio System) was quantified by a real time PCR assay using the following primers. […] Taqman was performed in duplicate. […] First ΔCt was calculated by subtracting 18S rRNA CT value from dengue RNA CT value. ΔCts from duplicate taqman assay were averaged. […] Relative quantification was calculated using the following formula. Relative quantification = 2^-averageΔΔCT. […]
The conditions of series [2]: cited from earlier work.
The nature of a further series: clinical. Particulars: human, in vivo. On the procedure:
Randomization to treatment group was by computer-generated randomization sequencing in blocks of 2. Balapiravir was formulated in a 500-mg film-coated tablet. The placebo consisted of an identical looking tablet containing excipient only. All balapiravir and placebo tablets were provided by F. Hoffmann-La Roche. Patients in cohort 1 (n = 20) received 1500 mg of balapiravir or an identical placebo orally every 12 hours for 5 days (10 doses). The decision to dose escalate (to 3000 mg) was made after review of the partially unblinded group mean clinical and laboratory data acquired from patients in cohort 1. Patients in cohort 2 (n = 44) received 3000 mg of balapiravir or placebo orally twice a day for 5 days (10 doses).
Serum samples for pharmacokinetic investigations were collected at time 0 (predose) and 2, 4, 8, and 12 hours postdose on days 1 and 5. Pharmacokinetics parameters were calculated using noncompartmental methods.

In series [3] the test system is DENV-1, DENV-2, and DENV-4. In words: Activity against DENV in dendritic cells. Particulars: Dengue virus, Dendritic cell, DENV-1, DENV-2, DENV-4, data not shown, read-out: mean EC50 range. Format: cell-based.
In series [4] the test system is DENV-1, DENV-2, and DENV-4. In words: Activity against DENV in primary human macrophages. Format: cell-based. To be noted: Dengue virus, Macrophage, DENV-1, DENV-2, DENV-4, data not shown, read-out: mean EC50 range.

Each structure is given as a SMILES string. Where two headings read alike, the source gives them in different places. Some results are limits rather than exact numbers.

Turning to `C#C[C@@]1(O)[C@H](O)[C@@H](CO)O[C@H]1n1ccc2c(N)ncnc21` [NITD008, reference compound], the IC50 turned out to be 500 ± 100 nM in the series with DENV-1 (DENV-1 strain FR28 (clinical isolate)); 500 ± 200 nM in the series on DENV-1 (DENV-1 strain FR34 (clinical isolate)); 400 ± 100 nM with DENV-1 (DENV-1 strain FR37 (clinical isolate)); 500 ± 200 nM in the series with DENV-1 (DENV-1 strain FR42 (clinical isolate)); 400 ± 100 nM in the series with DENV-1 (DENV-1 strain Thsman); 500 ± 200 nM in the series on DENV-3 (DENV-3 strain 33/0072 (clinical isolate), Huh-7 cells). The IC50 is 300 ± 100 nM in the series on DENV-3 (DENV-3 strain 33/0096 (clinical isolate), Huh-7 cells); 300 nM in the series on DENV-3 (DENV-3 strain 33/0177 (clinical isolate), Huh-7 cells); 600 nM in the series on DENV-3 (DENV-3 strain 33/0253 (clinical isolate), Huh-7 cells); 400 ± 100 nM in the series with DENV-3 (DENV-3 strain H87, Huh-7 cells); 600 ± 100 nM in the series on DENV-4 (DENV-4 strain H241, Huh-7 cells); 100 ± 100 nM in the series with DENV-4 (DENV-4 strain Phili/1567, Huh-7 cells). Besides, the IC50 was determined as 300 ± 100 nM in the series on DENV-4 (DENV-4 strain Senga/DA, Huh-7 cells); 200 ± 100 nM in the series with DENV-4 (DENV-4 strain Venz/JQ, Huh-7 cells); 500 ± 200 nM with DENV-2 (DENV-2 strain 32/0102 (clinical isolate), Huh-7 cells); 300 nM with DENV-2 (DENV-2 strain 32/0140 (clinical isolate), Huh-7 cells); 400 ± 200 nM in the series with DENV-2 (DENV-2 strain 33/0051 (clinical isolate), Huh-7 cells); 300 ± 200 nM with DENV-2 (DENV-2 strain 33/0178 (clinical isolate), Huh-7 cells). Moreover, the IC50 was 500 ± 100 nM in the series with DENV-2 (DENV-2 strain Th36, Huh-7 cells) and 100 to 600 nM in [1] (Huh-7 cells, range over DENV strains, read-out: Mean values of median inhibitory concentration (IC50)).
`[N-]=[N+]=N[C@]1(CO)O[C@@H](n2ccc(N)nc2=O)[C@H](O)[C@@H]1O` [R1479, 4′-azidocytidine]: the “Cmax above the HCV replicon EC50” value in series [2] (500 mg balapiravir twice daily) is given as over 5 fold. Further, in [2] (1500 mg balapiravir twice daily), the “mean plasma trough level above the human serum adjusted HCV replicon EC50” value is 3.5 fold. In addition, the “ratio of mean plasma trough level to human serum adjusted HCV replicon EC50” value in [2] (3000 mg balapiravir twice daily) is 4.9; in [2] (4500 mg balapiravir twice daily), 7.8. In addition, the EC50 fell in the range of 1.9 to 11 µM in series [1] (Dengue virus, Huh-7, read-out: mean half maximal effective concentration (EC50) values); 5.2 to 6 µM in series [3]; 1300 to 3200 nM in [4]. Also, the highest concentration (Cmax) – broadly, the peak of the concentration-time curve – in “clinical” is 25 to 145 µM; in the series “clinical” (1500 mg, Cmax), 16.5 µM; in the series “clinical” (1500 mg, plasma Cmax of R1479) it was over 6 µM; in “clinical” (3000 mg, Cmax), 23.9 µM. In addition, in “clinical”, the “mean Cmin concentrations that may need to be exceeded for antiviral effects on DENV” value was in the range of 6.7 to 39 µM.

Values taken from paper PMC3610419, “A Randomized, Double-Blind Placebo Controlled Trial of Balapiravir, a Polymerase Inhibitor, in Adult Dengue Patients” (The Journal of Infectious Diseases, 2012).
